The values below come from PubChem BioAssay AID2202558 (NIEHS Division of Translational Toxicology (DTT)).

Results filed as inconclusive are left out. Activity calls are given as the source filed them. No rule for the calls is given here. Where a SMILES comes first, the peptide text is derived from it.

This series deals with mouse/rat in vivo micronucleus assay, summary call. Put plainly: In vivo micronucleus assay summary data. The source says: The erythrocyte micronucleus test examines the ability of substances to cause chromosome damage in developing red blood cells inside bone marrow. A micronucleus (literally, "little nucleus") is a biomarker of structural chromosome damage (e.g., breaks) and changes in chromosome number (e.g., chromosome loss). If a chromosome is broken or fails to migrate properly with other chromosomes during cell division, the broken piece or lost chromosome will form a small (micro) nucleus of its own in one of the two daughter cells produced. Detection of chromosomal damage is important because it has been linked to birth defects, infertility, and certain diseases, including cancer.
The micronucleus test is performed in rapidly dividing cell populations, and bone marrow is a site of rapid blood cell division. Both bone marrow and peripheral blood samples can be examined for the presence of micronuclei in red blood cells.
Animals are treated with a test substance once or daily over a period of time, and the frequency of micronucleated cells is determined 24-48 hours after the final treatment, depending on the source of the cells (bone marrow or blood) that are examined and the treatment regimen.
The test subjects are rodents (rats or mice) that are exposed to the test substance, usually by oral gavage or injection. Typically, one to three daily treatments of the test substance are administered over a range of doses; the highest dose tested is near the maximum tolerated dose. Groups of negative and positive control animals are included for each test. Bone marrow samples are obtained from all animals 24 hours after the last treatment, and red blood cells are examined for the presence of micronuclei.
B. Peripheral Blood Tests
Micronucleus tests are performed on male and female rodents that are exposed to the test substance orally, dermally, or by inhalation in subchronic (e.g., 28 or 90 days) or short term (e.g., 48-72 hours) toxicity studies. 24 to 48 hours after the final exposure, peripheral blood samples are obtained and red blood cells are examined for the presence of micronuclei. Samples may be examined using standard slide scoring procedures or automated flow cytometric approaches. Since 2007, NTP has routinely relied on flow cytometry to evaluate the frequency of micronucleated cells in peripheral blood.
Peripheral blood micronucleus assays are typically integrated into all NTP toxicity studies, and they also lend themselves to serial monitoring of micronucleus frequencies over time, since blood samples can be obtained without the need to sacrifice the animals.
Blood or bone marrow samples from treated animals are compared to samples from untreated animals. With the slide-based approach for data acquisition, 1000-2000 cells were scored per animal. Using flow cytometric procedures to evaluate blood samples, 20,000 immature red blood cells and around one million mature red blood cells are examined per animal, resulting in a marked increase in the ability to detect small changes in the frequency of micronucleated red blood cells. The data is analyzed using statistical methods to determine if there is a significant increase in the frequency of cells containing micronuclei. Both dose-related responses and the magnitude of response for each independent dose group are considered during the evaluation of the data. For a positive test, both a significant dose response (trend) and at least one significant dose group are required. If only one of these measures is present, the test is determined to be questionable. The absence of either condition results in a negative test. The final conclusions for micronucleus tests are determined by considering the results of statistical analyses, reproducibility of any observed effects, and the magnitude of the effects. Ultimately, both the biological significance as well as statistical significance is considered when reaching a final conclusion.
[…]

As for `CC(C)C=O`, the outcome was “inactive; negative”.
For `CN(C)c1ccc(C(c2ccccc2)c2ccc(N(C)C)cc2)cc1`, the outcome is “active; positive”.
To `O[C@@H]([C@H](O)[C@H](O)CBr)[C@H](O)CBr` belongs “active; positive”.
For `Nc1cc([N+](=O)[O-])ccc1O` the value was “inactive; negative”; for `O=C(O)C(F)(F)C(F)(F)C(F)(F)C(F)(F)C(F)(F)C(F)(F)C(F)(F)F`, “active”; for `Nc1ccc(Cc2ccc(N)cc2)cc1`, “active; positive (nonstandard protocol)”.
For `CCCCn1cc[n+](C)c1` the value was “inactive; negative”.
Turning to `O=S(=O)(O)C(F)(F)C(F)(F)C(F)(F)C(F)(F)C(F)(F)C(F)(F)C(F)(F)C(F)(F)F`, the outcome was active.
`Nc1ccc(-c2ccccc2)cc1`: the outcome was “active; positive”.
Consider `ClCCOCOCCCl`, for which the outcome was “inactive; negative”.
`C=C(C)C#N`: the outcome is “inactive; negative”.
For `O=C1C=CCCC1`, the outcome is “inactive; negative”.
Regarding `Cc1ccccc1N`, the outcome was “active; negative”.
For `CC(C)c1ccccc1`, the outcome was “active; negative”.
In the case of `C[N+](C)(C)Cc1ccccc1`, the outcome is “active; positive”.
With `COc1cc(Cc2cnc(N)nc2N)cc(OC)c1OC` (tested in a mixture with another compound), the outcome was “active; positive”.
As to `CC(C)=CCl`, the outcome was “active; positive”.
In the case of `COC(=O)[C@H](Cc1ccccc1)NC(=O)[C@@H](N)CC(=O)O` (H-Asp-Phe-OMe), the outcome is “active; positive”.
As to `Cc1c2ccccc2c(C)c2c1ccc1ccccc12`, the outcome was “active; positive”.
On to `C=COC(C)=O`, for which the outcome was active.
For the compound `CC(C)(C)O`, the outcome is “inactive; negative”.
For `C=CC(=O)NCNC(=O)C=C` the value was “active; positive”; for `O=NO`, “inactive; negative”; for `Nc1ccc(S(=O)(=O)Nc2ccccn2)cc1`, “active; positive”.
In the case of `CC[C@]1(O)C[C@H]2CN(CCc3c([nH]c4ccccc34)[C@@](C(=O)OC)(c3cc4c(cc3OC)N(C=O)[C@H]3[C@@](O)(C(=O)OC)[C@H](OC(C)=O)[C@]5(CC)C=CCN6CC[C@]43[C@@H]65)C2)C1`, the outcome is “active; positive”.
As for `CC/C(=C(/CC)c1ccc(O)cc1)c1ccc(O)cc1`, the outcome is “active; positive”.
Consider `CC(C)CON=O`, for which the outcome was “active; positive”.
Regarding `Nc1nc(=O)n([C@@H]2CS[C@H](CO)O2)cc1F`, the outcome is “active; positive”.
Regarding `[O-][N+](=Nc1ccc(Cl)c(Cl)c1)c1ccc(Cl)c(Cl)c1`, the outcome was “active; positive”.
To `c1cc(OCC2CO2)cc(OCC2CO2)c1` (stereo unspecified) belongs “active; positive”; to `CC[n+]1c(-c2ccccc2)c2cc(N)ccc2c2ccc(N)cc21`, “inactive; negative”.
As for `OCc1c[nH]c2ccccc12`, the outcome is “inactive; negative”.
With `CCOC(N)=O`, the outcome was “active; positive”.
On to `CC=Cc1ccc(O)c(OC)c1`, for which the outcome was “active; positive”.
As for `O=CC=CC=Cc1ccc([N+](=O)[O-])cc1`, the outcome is “active; positive (nonstandard protocol)”.
For `C=CC(=O)NCCNC(=O)C=C` the value was “active; positive (nonstandard protocol)”; for `ClC=CCCl`, “active; positive”.
To `Cc1ccc(S(N)(=O)=O)cc1` belongs “inactive; negative”.
For `O=S(=O)([O-])[O-].[O]=[V+2]`, the outcome is “inactive; negative”.
In the case of `O=C(O)C=Cc1ccc(O)c(O)c1`, the outcome was “active; positive”.
On to `Nc1ccc(Cl)cc1N`, for which the outcome was “active; positive”.
With `C[C@H](Cn1cnc2c(N)ncnc21)OCP(=O)(O)O`, the outcome was “active; positive”.
As to `C=CCOCC1CO1` (stereo unspecified), the outcome was “active; positive”.
For the compound `Nc1ccc(Oc2ccc(N)cc2)cc1`, the outcome is “active; positive”.
Regarding `Nc1ccn([C@H]2CC[C@@H](CO)O2)c(=O)n1`, the outcome was “active; positive”.
On to `CC(=O)C1(C)CC2=C(CCCC2(C)C)CC1C` (stereo unspecified), for which the outcome is “active; positive”.
As for `C1CN1c1nc(N2CC2)nc(N2CC2)n1`, the outcome is “active; positive”.
Regarding `Cc1cnc[nH]1`, the outcome was “inactive; negative”.
To `Brc1c(Br)c(Br)c(Oc2c(Br)c(Br)c(Br)c(Br)c2Br)c(Br)c1Br` belongs “active”.
For `Nc1ncn([C@@H]2O[C@H](CO)[C@@H](O)[C@H]2O)c(=O)n1` the value was “active; positive”; for `O=C(O)C(Br)Br`, “active; positive”; for `CC(=O)CC(C)=O`, “active; positive”.
Regarding `CCN(N=O)C(N)=O`, the outcome was “active; positive”.
For `CC(CCl)OP(=O)(OC(C)CCl)OC(C)CCl` (stereo unspecified), the outcome was “active; positive”.
To `O=[N+]([O-])C(Br)=Cc1ccccc1` belongs “active; positive”; to `CCCC=NO`, “active; positive”; to `c12c3c4c5c1c1c6c7c2c2c8c3c3c9c4c4c%10c5c5c1c1c6c6c%11c7c2c2c7c8c3c3c8c9c4c4c9c%10c5c5c1c1c6c6c%11c2c2c7c3c3c8c4c4c9c5c1c1c6c2c3c41`, “inactive; negative”.
For `O=P1(N(CCCl)CCCl)NCCCO1` (stereo unspecified), the outcome was “active; positive”.
`CCCOC(=O)c1cc(O)c(O)c(O)c1`: the outcome is “active; positive”.
For `Cc1cccc([N+](=O)[O-])c1`, the outcome is “inactive; negative”.
Take `Oc1ccccc1`: the outcome was “active; positive”.
As to `C=CC(=C)C`, the outcome is “active; positive”.
Turning to `Nc1nc(=S)c2[nH]cnc2[nH]1`, the outcome was “active; positive”.
Consider `COC(=O)C(c1ccccc1)C1CCCCN1` (stereo unspecified), for which the outcome is “inactive; negative”.
On to `Nc1ccccc1Cl`, for which the outcome is “active; negative”.
`CC#N`: the outcome was “active; positive”.
As to `CC[C@H](CC[C@@H](C)[C@H]1CC[C@H]2[C@@H]3CC=C4C[C@@H](O)CC[C@]4(C)[C@H]3CC[C@]12C)C(C)C`, the outcome is “inactive; negative”.
To `C1CCC2CCCCC2C1` (stereo unspecified) belongs “active; weakly positive”; to `[O-][Br+2]([O-])O`, “active; positive”; to `CN(N=O)C(N)=O`, “active; positive”.
To `CC(C)N=C=NC(C)C` belongs “active; positive”.
Take `CN(C)c1ccc(C(=C2C=CC(=[N+](C)C)C=C2)c2ccccc2)cc1`: the outcome was “inactive; negative”.
Take `C=CCO`: the outcome is “inactive; negative”.
For `CCCCC(CC)COC(=O)c1ccccc1C(=O)OCC(CC)CCCC` (stereo unspecified) the value was “active; positive”; for `Cc1ncc[nH]1`, “active; positive”.
In the case of `Nc1ccn([C@@H]2O[C@H](CO)[C@@H](O)[C@@H]2O)c(=O)n1`, the outcome was “active; positive”.
As to `CCOC(C)(C)C`, the outcome was “inactive; negative”.
Turning to `COC(=O)c1ccccc1C(=O)OC`, the outcome was “inactive; negative”.
`CCn1cc[n+](C)c1`: the outcome was “inactive; negative”.
`CN(C)C(=O)Nc1ccc(Cl)cc1`: the outcome is “active; positive”.
Take `Oc1ccc(O)cc1`: the outcome was “active; positive”.
On to `CC(=O)C(C)O` (stereo unspecified), for which the outcome was “inactive; negative”.
With `NC(=O)c1ncn([C@@H]2O[C@H](CO)[C@@H](O)[C@H]2O)n1`, the outcome was “active; positive”.
Take `COc1cccc2c1C(=O)c1c(O)c3c(c(O)c1C2=O)C[C@@](O)(C(=O)CO)C[C@@H]3O[C@H]1C[C@H](N)[C@H](O)[C@H](C)O1`: the outcome was “active; positive”.
In the case of `[O]=[Cr](=[O])([OH])[O][Cr](=[O])(=[O])[OH]`, the outcome was “active; positive”.
For `CO[C@@]12[C@H](COC(N)=O)C3=C(C(=O)C(C)=C(N)C3=O)N1C[C@@H]1N[C@@H]12`, the outcome was “active; positive”.
